# From the supplement of paper PMC10307832
# What was measured:
# Assay in all cases: relative viability (nuclei count vs DMSO), 5 days (fraction); higher = more cells survive
# NCI-H2405 = test system: NCI-H2405
# Outline: (§1)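 The day after seeding in 1536-well plates, lung cancer cell lines were treated by pin tool with a single drug, or with a fixed anchor-drug dose together with five library-drug doses (not always all listed) in √10 steps. After 5 days, a combined fix-and-stain solution (final 0.05% Triton X-100, 1% formaldehyde, 1 ug/ml Hoechst) was added. Nuclei counted on 4× images gave relative viability as treated counts over vehicle counts, reported as the median of duplicate plates.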
# HOP-62 = test system: HOP-62
# Outline: as §1
# NCI-H650 = test system: NCI-H650
# Outline: as §1
# ChaGo-K-1 = test system: ChaGo-K-1
# Outline: as §1
# H3255 = test system: H3255
# Outline: as §1
# NCI-H23 = test system: NCI-H23
# Outline: as §1
# SK-LU-1 = test system: SK-LU-1
# Outline: as §1
# NCI-H1975 = test system: NCI-H1975
# Outline: as §1
# 201T = test system: 201T
# Outline: as §1
# COR-L 105 = test system: COR-L 105
# Outline: as §1
# NCI-H727 = test system: NCI-H727
# Outline: as §1
# EKVX = test system: EKVX
# Outline: as §1
# HCC-827 = test system: HCC-827
# Outline: as §1
# NCI-H661 = test system: NCI-H661
# Outline: as §1
# NCI-H2228 = test system: NCI-H2228
# Outline: as §1
# LOU-NH91 = test system: LOU-NH91
# Outline: as §1
# NCI-H2126 = test system: NCI-H2126
# Outline: as §1
# NCI-H596 = test system: NCI-H596
# Outline: as §1
# HARA = test system: HARA
# Outline: as §1
# NCI-H3122 = test system: NCI-H3122
# Outline: as §1
# LCLC-103H = test system: LCLC-103H
# Outline: as §1
# SW 900 = test system: SW 900
# Outline: as §1
# PC-3 [JPC-3] = test system: PC-3 [JPC-3]
# Outline: as §1
compound,measurement,setting,value
CN1CCN(CCOc2cc(OC3CCOCC3)c3c(Nc4c(Cl)ccc5c4OCO5)ncnc3c2)CC1 [Saracatinib] + O=C(c1cc(Cc2n[nH]c(=O)c3ccccc23)ccc1F)N1CCN(C(=O)C2CC2)CC1 [Olaparib] (partner 8 µM),relative viability,NCI-H2405; first compound 0.02 µM,0.873
same,relative viability,NCI-H2405; first compound 0.2 µM,0.84
same,relative viability,NCI-H2405; first compound 0.6325 µM,0.673
same,relative viability,NCI-H2405; first compound 2 µM,0.595
same,relative viability,HOP-62; first compound 0.02 µM,0.38
same,relative viability,HOP-62; first compound 0.2 µM,0.417
same,relative viability,HOP-62; first compound 0.6325 µM,0.204
same,relative viability,HOP-62; first compound 2 µM,0.39
same,relative viability,NCI-H650; first compound 0.02 µM,0.353
same,relative viability,NCI-H650; first compound 0.2 µM,0.442
same,relative viability,NCI-H650; first compound 0.6325 µM,0.429
same,relative viability,NCI-H650; first compound 2 µM,0.432
same,relative viability,ChaGo-K-1; first compound 0.02 µM,0.423
same,relative viability,ChaGo-K-1; first compound 0.2 µM,0.28
same,relative viability,ChaGo-K-1; first compound 0.6325 µM,0.413
same,relative viability,ChaGo-K-1; first compound 2 µM,0.449
same,relative viability,H3255; first compound 0.02 µM,0.623
same,relative viability,H3255; first compound 0.2 µM,0.496
same,relative viability,H3255; first compound 0.6325 µM,0.593
same,relative viability,H3255; first compound 2 µM,0.301
same,relative viability,NCI-H23; first compound 0.02 µM,0.386
same,relative viability,NCI-H23; first compound 0.6325 µM,0.391
same,relative viability,NCI-H23; first compound 2 µM,0.23
same,relative viability,SK-LU-1; first compound 0.02 µM,0.416
same,relative viability,SK-LU-1; first compound 0.2 µM,0.359
same,relative viability,SK-LU-1; first compound 0.6325 µM,0.33
same,relative viability,SK-LU-1; first compound 2 µM,0.28
same,relative viability,NCI-H1975; first compound 0.02 µM,0.787
same,relative viability,NCI-H1975; first compound 0.2 µM,0.793
same,relative viability,NCI-H1975; first compound 0.6325 µM,0.804
same,relative viability,NCI-H1975; first compound 2 µM,0.517
same,relative viability,201T; first compound 0.02 µM,0.913
same,relative viability,201T; first compound 0.2 µM,0.595
same,relative viability,201T; first compound 0.6325 µM,0.775
same,relative viability,201T; first compound 2 µM,0.665
same,relative viability,COR-L 105; first compound 0.02 µM,0.594
same,relative viability,COR-L 105; first compound 0.2 µM,0.617
same,relative viability,COR-L 105; first compound 0.6325 µM,0.698
same,relative viability,COR-L 105; first compound 2 µM,0.698
same,relative viability,NCI-H727; first compound 0.02 µM,0.687
same,relative viability,NCI-H727; first compound 0.2 µM,0.51
same,relative viability,NCI-H727; first compound 0.6325 µM,0.534
same,relative viability,NCI-H727; first compound 2 µM,0.578
same,relative viability,EKVX; first compound 0.02 µM,0.704
same,relative viability,EKVX; first compound 0.6325 µM,0.91
same,relative viability,EKVX; first compound 2 µM,0.38
same,relative viability,HCC-827; first compound 0.02 µM,0.66
same,relative viability,HCC-827; first compound 0.2 µM,0.532
same,relative viability,HCC-827; first compound 0.6325 µM,0.192
same,relative viability,HCC-827; first compound 2 µM,0.16
same,relative viability,NCI-H661; first compound 0.02 µM,0.748
same,relative viability,NCI-H661; first compound 0.2 µM,0.625
same,relative viability,NCI-H661; first compound 0.6325 µM,0.671
same,relative viability,NCI-H661; first compound 2 µM,0.59
same,relative viability,NCI-H2228; first compound 0.02 µM,0.966
same,relative viability,NCI-H2228; first compound 0.2 µM,0.617
same,relative viability,NCI-H2228; first compound 0.6325 µM,0.475
same,relative viability,NCI-H2228; first compound 2 µM,0.568
same,relative viability,LOU-NH91; first compound 0.02 µM,0.862
same,relative viability,LOU-NH91; first compound 0.2 µM,0.711
same,relative viability,LOU-NH91; first compound 0.6325 µM,0.73
same,relative viability,LOU-NH91; first compound 2 µM,0.613
same,relative viability,NCI-H2126; first compound 0.02 µM,0.886
same,relative viability,NCI-H2126; first compound 0.2 µM,0.924
same,relative viability,NCI-H2126; first compound 0.6325 µM,0.923
same,relative viability,NCI-H2126; first compound 2 µM,0.763
same,relative viability,NCI-H596; first compound 0.02 µM,0.727
same,relative viability,NCI-H596; first compound 0.2 µM,0.589
same,relative viability,NCI-H596; first compound 0.6325 µM,0.684
same,relative viability,NCI-H596; first compound 2 µM,0.546
same,relative viability,HARA; first compound 0.02 µM,0.891
same,relative viability,HARA; first compound 0.2 µM,0.631
same,relative viability,HARA; first compound 0.6325 µM,0.878
same,relative viability,HARA; first compound 2 µM,0.311
same,relative viability,NCI-H3122; first compound 0.02 µM,0.62
same,relative viability,NCI-H3122; first compound 0.2 µM,0.485
same,relative viability,NCI-H3122; first compound 0.6325 µM,0.682
same,relative viability,NCI-H3122; first compound 2 µM,0.528
same,relative viability,LCLC-103H; first compound 0.02 µM,0.796
same,relative viability,LCLC-103H; first compound 0.2 µM,0.71
same,relative viability,LCLC-103H; first compound 0.6325 µM,0.758
same,relative viability,LCLC-103H; first compound 2 µM,0.807
same,relative viability,SW 900; first compound 0.02 µM,0.831
same,relative viability,SW 900; first compound 0.2 µM,0.753
same,relative viability,SW 900; first compound 0.6325 µM,0.784
same,relative viability,SW 900; first compound 2 µM,0.643
same,relative viability,PC-3 [JPC-3]; first compound 0.02 µM,1.19
same,relative viability,PC-3 [JPC-3]; first compound 0.2 µM,0.993
same,relative viability,PC-3 [JPC-3]; first compound 0.6325 µM,0.746
same,relative viability,PC-3 [JPC-3]; first compound 2 µM,0.55
